From paper PMC5401710, “Peptides with 6-Aminohexanoic Acid: Synthesis and Evaluation as Plasmin Inhibitors” (International Journal of Peptide Research and Therapeutics, 2016)

Tests used:
plasmin = target: T1, plasmin (Homo sapiens, UniProt P00747); experiment: Amidolytic activity of plasmin (substrate S-2251); format: biochemical; settings: maximum concentration 20 mM
T1 construct: The amino-terminal heavy chain of PL consists of five kringle domains; The C-terminal light chain of plasmin is a typical serine protease (SP); purchased Chromogenix (Milano, Italy)
T1 sequence (P00747 97-580 limits assumed): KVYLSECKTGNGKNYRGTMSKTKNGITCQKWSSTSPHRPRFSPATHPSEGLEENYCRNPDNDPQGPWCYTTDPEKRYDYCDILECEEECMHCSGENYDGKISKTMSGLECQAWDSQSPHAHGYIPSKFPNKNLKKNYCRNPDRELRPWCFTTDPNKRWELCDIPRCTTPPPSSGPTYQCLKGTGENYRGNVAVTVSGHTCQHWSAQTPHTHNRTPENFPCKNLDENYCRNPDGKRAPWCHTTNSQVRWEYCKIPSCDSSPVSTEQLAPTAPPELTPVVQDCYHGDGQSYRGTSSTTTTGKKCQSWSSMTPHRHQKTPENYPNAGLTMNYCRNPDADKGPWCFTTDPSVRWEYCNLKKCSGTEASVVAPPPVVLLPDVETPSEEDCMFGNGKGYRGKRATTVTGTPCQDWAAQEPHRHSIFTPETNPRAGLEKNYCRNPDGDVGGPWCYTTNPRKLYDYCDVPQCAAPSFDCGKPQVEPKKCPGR
T1 sequence (P00747 581-810 limits assumed): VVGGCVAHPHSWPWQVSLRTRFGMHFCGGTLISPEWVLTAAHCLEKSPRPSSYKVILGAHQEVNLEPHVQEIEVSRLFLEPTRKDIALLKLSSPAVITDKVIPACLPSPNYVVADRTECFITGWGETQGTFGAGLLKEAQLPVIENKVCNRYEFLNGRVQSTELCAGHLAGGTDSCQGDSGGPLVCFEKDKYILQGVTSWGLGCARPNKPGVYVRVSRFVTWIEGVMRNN
Method: (§1) Determination of amidolytic activity was performed as previously described by (Okada et al. [1988]). Buffer and 0.1 ml of enzyme solution was added to 0.2 ml of examined compound dissolved in 0.15 M NaCl (1–15) (as control 0.15 M NaCl). The buffer and the enzyme solution included: • tris buffer—0.6 ml (pH 8.8), enzyme: urokinase (50 units/ml), synthetic substrate: S-2444 (0.1 ml, 3 mM); • tris buffer—0.5 ml (pH 8.4), enzyme: thrombin (1 units/ml), synthetic substrate: S-2238 (0.2 ml, 0.75 mM); • tris buffer—0.5 ml (pH 7.4), enzyme: plasmin (0.4 units/ml), synthetic substrate: S-2251 (0.2 ml, 3 mM); • […]—0.5 ml (pH 7.5), enzyme: trypsin (0.4 units/ml), synthetic substrate: Bzl-L-Arg–pNA.HCl (0.2 ml, 8 mM); • tris buffer—0.6 ml (pH 9.0), enzyme: kallikrein (3 units/ml), synthetic substrate: S-2266 (0.1 ml, 75 mM); • tris buffer—0.6 ml (pH 8.4), enzyme: t-PA ([…]), synthetic substrate: S-2288 (0.1 ml, 10 mM).
(§2) IC50 values were determined (IC50, Inhibitor Concentration, the concentration at which enzyme activity is inhibited by 50 %). Our results were compared with the 6-aminohexanoic acid.

thrombin = target: T2, thrombin (Bos taurus, UniProt P00735); experiment: Amidolytic activity of thrombin (substrate S-2238); format: biochemical; settings: maximum concentration 20 mM
T2 construct: purchased Lubelska Wytwórnia Szczepionek (Lublin, Poland)
Method: as §1, §2

tPA = target: T3, tPA (Homo sapiens, UniProt P00750); experiment: Amidolytic activity of t-PA (substrate S-2288); format: biochemical; settings: maximum concentration 20 mM
T3 construct: purchased Boehringer Ingelheim GmbH (Ingelheim, Germany)
T3 sequence (P00750 36-562): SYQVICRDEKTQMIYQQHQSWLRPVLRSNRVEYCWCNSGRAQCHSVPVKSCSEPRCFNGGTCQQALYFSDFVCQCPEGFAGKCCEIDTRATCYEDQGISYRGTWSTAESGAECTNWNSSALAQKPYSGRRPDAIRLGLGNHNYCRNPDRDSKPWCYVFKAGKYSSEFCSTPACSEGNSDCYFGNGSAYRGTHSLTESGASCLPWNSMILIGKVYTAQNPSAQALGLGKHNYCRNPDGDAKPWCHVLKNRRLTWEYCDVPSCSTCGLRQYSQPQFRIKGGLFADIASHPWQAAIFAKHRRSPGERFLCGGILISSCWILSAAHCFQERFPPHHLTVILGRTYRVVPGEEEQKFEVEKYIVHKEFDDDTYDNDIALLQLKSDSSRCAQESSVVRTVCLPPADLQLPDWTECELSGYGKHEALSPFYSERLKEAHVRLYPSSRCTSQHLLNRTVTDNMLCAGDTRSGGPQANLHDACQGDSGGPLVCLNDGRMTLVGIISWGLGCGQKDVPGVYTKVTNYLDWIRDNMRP
Method: as §1, §2

uPA = target: T4, uPA (Homo sapiens, UniProt P00749); experiment: Amidolytic activity of urokinase (substrate S-2444); format: biochemical; settings: maximum concentration 20 mM
T4 construct: purchased Sigma (Schnelldorf, Germany)
Method: as §1, §2

trypsin = experiment: Amidolytic activity of trypsin (substrate Bzl-L-Arg-pNA); format: biochemical; settings: maximum concentration 20 mM
Method: as §1, §2

kallikrein = experiment: Amidolytic activity of kallikrein (substrate S-2266); format: biochemical; settings: maximum concentration 20 mM, S-2266, pH 9.0
Method: as §1, §2

[1] = system: fibrinolysis in whole blood; experiment: Thromboelastometric (ROTEM) analysis of clot formation and fibrinolysis in whole blood; parameters: species or system human
Method: Five healthy volunteers, men (age range: 25–34 years)) with normal blood cell counts were entered into the study. Healthy volunteers had not taken medication known to affect platelet function and/or coagulation for at least 10 days before blood sampling.
Blood was stored at room temperature for 30 min after venipuncture and then was evaluated by thromboelastometric analyses.
Thromboelastometric measurements were performed using ROTEM system (Tem International GmbH, Manheim, Germany). […] We measured the parameters characterized kinetic of clot formation (clotting time, alpha angle), clot strength (maximal clot firmness; MCF), and fibrinolysis (percentage reduction of MCF, clot lysis time).

MCF-7 cells = experiment: Cytotoxicity assay (method of Plumb et al.); format: cell-based; settings: 10, 100, 250, 500 and 1000 μM
Method: (§3) All studies were performed on MCF-7, MDA-MB-231 and DLD cells lines were purchased from American Type Culture Collection (Rockville, MD). The cells were maintained in DMEM supplemented with 5 % fetal bovine serum (FBS), […] glutamine, 50 U/ml penicillin, […] streptomycin at 37 °C in a 5 % CO2 incubator.
(§4) The toxicity of the evaluated peptides was determined by the method of Plumb et al. ([1989]) in 10, 100, 250, 500 and 1000 μM concentrations. MCF-7, MDA-MB-231 and DLD cells were maintained as described above. The detailed description of the method is given by (Markowska et al. [2013]).

MDA-MB-231 cells = experiment: Cytotoxicity assay (method of Plumb et al.); format: cell-based; settings: 10, 100, 250, 500 and 1000 μM
Method: as §3, §4

[2] = system: colon cancer cell line DLD-1; experiment: Cytotoxicity assay (method of Plumb et al.); format: cell-based; settings: 10, 100, 250, 500 and 1000 μM
Method: as §3, §4

fibroblast cells = experiment: Cytotoxicity assay, normal cells; format: cell-based
[3] = recalcified human whole blood, 140 ng/ml TF, 125 ng/ml tPA

NCCCCCC(=O)O [EACA, 6-aminohexanoic acid]
effect on amidolytic activity of plasmin (in words) (plasmin): No effect | effect on amidolytic activity of thrombin (in words) (thrombin): No effect | effect on amidolytic activity of tPA (in words) (tPA): No effect | effect on amidolytic activity of uPA (in words) (uPA): No effect | effect on amidolytic activity of trypsin (in words) (trypsin): No effect | influence on the enzymatic activity of kallikrein (kallikrein): No effect | clotting time (CT, coagulation time) ([1]; human whole blood, control 174 s): 137 s | lysis of the clot in 45 min (from LI45) ([1]; human whole blood, whole blood alone about 61 %): 1% | LOT lysis onset time (clot amplitude reduced by 15 %) [1, 3]: ≥4084 s | LT lysis time (clot reduced/lysed by 90 %) [1, 3]: ≥168 min | LI30 lysis index, amplitude of clot after 30 min ([1]; recalcified human whole blood, TF + tPA, 30 min): 100% | LI45 lysis index, amplitude of clot after 45 min ([1]; recalcified human whole blood, TF + tPA, 45 min): 98% | LI60 lysis index, amplitude of clot after 60 min ([1]; recalcified human whole blood, TF + tPA, 60 min): 92% | cytotoxic effect / viability of MCF-7 cells (MCF-7 cells): did not display cytotoxicity | cytotoxic effect / viability of MDA-MB-231 cells (MDA-MB-231 cells): did not display cytotoxicity | cytotoxic effect / viability of DLD-1 cells [2]: did not display cytotoxicity | cytotoxic effect / viability of fibroblast cells (fibroblast cells): did not display cytotoxicity
